For one assay, the target named is h-GABA-A α2β2γ1 (Homo sapiens (Human), UniProt P47869+Q8N1C3). In words: Two-electrode voltage clamp electrophysiology in Xenopus oocytes expressing GABAA receptors. Type of assay: cell-based. Conditions: for potentiation of the GABA-induced current in α2βγ1 GABAA receptor subtype expressing oocytes: reference PAMs, GABA EC20. As to the method: Xenopus laevis oocytes at maturation stages V-VI were used for the expression of cloned mRNA encoding GABAA receptor subunits. Oocytes ready for RNA micro-injection were bought from Ecocyte, Castrop-Rauxel, Germany and stored in modified Barth's medium (composition in mM: NaCl 88, KCl 1, NaHCO3 2.4, HEPES 10, MgSO4 0.82, CaNO3 0.33, CaCl2 0.33, pH=7.5) at 20° C. until the experiment.
Oocytes were plated in 96-well plates for microinjection using the Roboinject automated instrument (MultiChannelSystems, Reutlingen, Germany). Approximately 50 nL of an aqueous solution containing the RNA transcripts for the subunits of the desired GABAA receptor subtype was injected into each oocyte. […] Oocytes were kept in modified Barth's medium (composition in mM: NaCl 88, KCl 1, NaHCO3 […], HEPES 10, MgSO4 0.82, CaNO3 0.33, CaCl2 0.33, pH=7.5) at 20° C. until the experiment.
Electrophysiological experiments were performed using the Roboocyte instrument (MultiChannelSystems, Reutlingen, Germany) on days 3 to 5 after the micro-injection of mRNA. During the experiment the oocytes were constantly superfused by a solution containing (in mM) NaCl 90, KCl 1, HEPES 5, MgCl2 1 CaCl2 1 (pH 7.4). Oocytes were impaled by two glass microelectrodes (resistance: 0.5-0.8 MΩ) which were filled with a solution containing KCl 1M+K-acetate 1.5 M and voltage-clamped to −80 mV. The recordings were performed at room temperature using the Roboocyte two-electrode voltage clamp system (Multichannelsystem). After an initial equilibration period of 1.5 min GABA was added for 1.5 min at a concentration evoking approximately 20% of a maximal current response (EC20). After another rest interval of 2.5 min GABA was again added evoking a response of similar amplitude and shape. […] Current traces were recorded at a digitization rate of 10 Hz during and shortly before and after the GABA application.
Each compound and concentration was tested on at least 3 oocytes. Different oocytes were used for different compound concentrations.
For the analysis, the digitized current traces of the first and second GABA response were superimposed and, if necessary, rescaled to equal maximal amplitudes. The ratio between the two responses during the time interval of test compound application was calculated point by point. The extremum of the resulting “ratio trace” was taken as the efficacy (“Fold increase”) of the compound expressed as “% modulation of GABA EC20” (100*(Fold increase−1)).

Assay [1] addresses human GABAA α2β2γ1 receptor (Homo sapiens (Human), UniProt P47869+Q8N1C3). The assay is described as follows: Radioligand binding assay, [3H]RO7239181 competition, γ1-containing GABAA subtypes. The following applies: for γ2/γ1 Selectivity Ratio: Ki α1β3γ2 (nM)/Ki α2β2γ1 (nM); for LogSel: Log[Ki α1β3γ2 (nM)/Ki α2β2γ1 (nM)]. As to the method:
The affinity of compounds at GABAA γ1 subunit-containing receptors was measured by competition for [^3H]RO7239181 (67.3 Ci/mmol; Roche) binding to membranes from HEK293F cells (ThermoFisher R79007) expressing human (transiently transfected) receptors of composition α5β2γ1, α2β2γ1, α1β2γ1.
Harvested pellets from HEK293F cells expressing the different GABAA receptor subtypes were resuspended in Mannitol Buffer pH 7.2-7.4 (Mannitol 0.29M, Triethylamine 10 mM, Acetic acid 10 mM, EDTA 1 mM plus protease inhibitors (20 tablets Complete, Roche Diagnostics Cat. No. 05 056 489 001 per liter)), washed two times and then resuspended at 1:10 to 1:15 dilution in the same buffer. Cell disruption was performed by stirring the suspension in a Parr vessel #4637 at 435 psi for 15 minutes, and then the suspensions were centrifuged at 1000×g for 15 minutes at 4° C. (Beckman Avanti J-HC; rotor JS)-4.2). The supernatant (S1) was transferred in a 21 Schott flask and the pellet (P1) was resuspended with Mannitol Buffer up to 175 ml. The resuspended pellet was transferred into a 250 ml Corning centrifugal beaker and centrifuged at 1500×g for 10 minutes at 4° C. (Beckman Avanti J-HC; rotor JS)-4.2). The supernatant (S1) was then transferred in the 21 Schott flask and the pellet was discarded. The supernatants (S1) were centrifuged in 500 ml Beckman polypropylene centrifugal beaker at 15,000×g for 30 minutes at 4° C. (Beckman Avanti J-20 XP; rotor JLA-10.500). The pellet (P2) was resuspended with Mannitol Buffer 1:1 and frozen at −80° C. The supernatant (S2) was centrifuged in 100 ml Beckman polypropylene centrifugal tubes at 48000×g for 50 minutes at […] (Beckman Avanti J-20 XP; rotor JA-18). The supernatant (S3) was discarded and the pellet (P3) was resuspended with 1:1 Mannitol Buffer. The P2 and P3 protein concentration was determined with the BIORAD Standard assay method with bovine serum albumin as standard and measured on the NANO-Drop 1000. The membrane suspension was aliquots (500 μl per tube) and stored at −80° C. until required.
Membrane homogenates were resuspended and polytronised (Polytron PT1200E Kinematica AG) in Potassium Phosphate 10 mM, KCl 100 mM binding buffer at pH 7.4 to a final assay concentration determined with a previous experiment.
Assays were incubated to equilibrium for 1 hour at 4° C. and then, membranes were filtered onto unifilter (96-well white microplate with bonded GF/C filters preincubated 20-50 minutes in 0.3% Polyethylenimine) with a Filtermate 196 harvester (Packard BioScience) and washed 4 times with cold Potassium Phosphate 10 mM pH 7.4, KCl 100 mM binding buffer. After drying, filter-retained radioactivity was detected by liquid scintillation counting. K, values were calculated using Excel-Fit (Microsoft) and are the means of two determinations.

The target in assay [2] is human GABAA α1β3γ2 receptor (Homo sapiens (Human), UniProt P14867+P18507). The assay is described as follows: Radioligand binding assay, [3H]Flumazenil competition, γ2-containing GABAA subtypes. On the procedure:
The affinity of compounds at GABAA γ2 subunit-containing receptors was measured by competition for [^3H]Flumazenil (81.1 Ci/mmol; Roche) binding to HEK293F cells expressing human (transiently transfected) receptors of composition α1β3γ2.
Harvested pellets from HEK293F cells expressing the different GABAA γ2 receptor subtypes were resuspended in Mannitol Buffer pH 7.2-7.4 and processed as described above for the cells expressing the GABAA γ1 subunit-containing receptors.
Assays were incubated to equilibrium for 1 hour at 4° C. and harvested onto GF/C uni-filters (Packard) by filtration using a Packard harvester and washing with ice-cold wash buffer (50 mM Tris; pH 7.5). After drying, filter-retained radioactivity was detected by liquid scintillation counting. Ki values were calculated using Exel-Fit (Microsoft) and are the means of two determinations.

The Ki is a measure of affinity in units of concentration, obtained from inhibition or displacement. Low values mean higher affinity, high ones lower affinity.

The structures appear in SMILES notation.

Consider `CN1C(=O)CN=C(c2ccccc2F)c2cc([N+](=O)[O-])ccc21` [Flunitrazepam, reference compound], for which the “potentiation of the GABA-induced current in α2βγ1 GABAA receptor subtype expressing oocytes” value (“potentiation of the GABA-induced current” for short) on h-GABA-A α2β2γ1 is recorded as about 60%.
As to `CCc1nnc2n1-c1ccc(C(F)(F)F)c(Cl)c1C(c1c(F)cccc1F)=N[C@H]2C` [Example 108, (4S)-7-chloro-6-(2,6-difluorophenyl)-1-ethyl-4-methyl-8-(trifluoromethyl)-4H-[1,2,4]triazolo[4,3-a][1,4]benzodiazepine], in assay [1], the “γ2/γ1 Selectivity Ratio” value amounted to 50.4. In addition, at h-GABA-A α2β2γ1 (% modulation of GABA EC20 = 100*(Fold increase−1), compound at 30-fold Ki), the “Efficacy (GABA)%” value is 94%.
For the compound `Cc1nnc2n1-c1ccc(Cl)cc1C(c1ccccc1)=NC2` [Alprazolam, reference compound], in assay [1], the “γ2/γ1 Selectivity Ratio” value turned out to be 0.0050 and the LogSel is −2.3.
The corresponding values for `Cc1nnc2n1-c1ccc(C(F)(F)F)cc1C(c1c(F)cccc1F)=NC2` [RE-B, 6-(2,6-difluorophenyl)-1-methyl-8-(trifluoromethyl)-4H-[1,2,4]triazolo[4,3-a][1,4]benzodiazepine, reference compound] are 0.23 and −0.64.
The corresponding values for `Cc1nnc2n1-c1ccccc1C(c1c(F)cccc1F)=NC2` [RE-C, 6-(2,6-difluorophenyl)-1-methyl-4H-[1,2,4]triazolo[4,3-a][1,4]benzodiazepine, reference compound] are 0.0092 and −2.0.
Consider `Cc1ncc2n1-c1ccc(Cl)cc1C(c1ccccc1F)=NC2` [Midazolam, reference compound], for which, in assay [1], the “γ2/γ1 Selectivity Ratio” value amounted to 0.0068 and the LogSel was −2.2. For the same compound, the “potentiation of the GABA-induced current” value on h-GABA-A α2β2γ1 is recorded as about 60%.
As to `Cc1nnc2n1-c1ccc(Br)cc1C(c1c(F)cccc1F)=NC2` [RE-A, 8-bromo-6-(2,6-difluorophenyl)-1-methyl-4H-[1,2,4]triazolo[4,3-a][1,4]benzodiazepine, reference compound], in assay [1], the “γ2/γ1 Selectivity Ratio” value was found to be 0.18 and the LogSel is on record as −0.74.
The corresponding values for `Clc1ccc2c(c1)C(c1ccccc1)=NCc1nncn1-2` [Estazolam, reference compound] are 0.0089 and −2.0.
Consider `Cc1nnc2n1-c1cccc(Cl)c1C(c1c(F)cccc1F)=N[C@H]2C` [RE-D, (4S)-7-chloro-6-(2,6-difluorophenyl)-1,4-dimethyl-4H-[1,2,4]triazolo[4,3-a][1,4]benzodiazepine, reference compound], for which, in assay [1], the inhibition constant (Ki) came to 454 nM, the “γ2/γ1 Selectivity Ratio” value is recorded as 2.215 and the LogSel turned out to be 0.35. For the same compound, in assay [2], the Ki worked out at 1010 nM.
For `Cc1nnc2n1-c1ccc(Cl)cc1C(c1ccccc1Cl)=NC2` [Triazolam, reference compound], the LogSel in assay [1] is −1.5. Further, the “potentiation of the GABA-induced current” value at h-GABA-A α2β2γ1 is on record as about 60%.

Source of the values: patent US20240002393A1, “SUBSTITUTED BENZO[f][l ,2,4JTRIAZOL0[4,3-a][l ,4J[…] GABA A GAMMA! POSITIVE ALLOSTERIC MODULATORS” (Hoffmann-La Roche Inc., priority 2020, published 2024).
